Test results published in PubChem BioAssay AID1963860 (Molecular Pharmacology Branch, DTP, NCI, 2024).

Tested on: CN0375-F725-PDC KRAS spheroid viability
Assay: Anticancer human tumor CN0375-F725-PDC patient-derived colon carcinoma cell line growth inhibition [KRAS2]
Settings: spheroids with HUVEC and MSC; for IC50: curve of first compound; for viability, T/C: stronger effect = lower value
Text: Multicellular complex tumor spheroid response to RAS pathway inhibitors in combination with a targeted agents in patient-derived cell lines with oncogenic KRAS variants from multiple cancer types
A high-throughput screen of multi-cell type tumor spheroids was designed to identify active combinations of targeted small molecules and KRAS pathway inhibitors. Complex spheroids include a stromal component modeled by human endothelial cells (HUVEC) and fibroblasts modeled by human mesenchymal stem cells (MSCs). The concentration ranges selected for each drug and investigational agent were based upon clinically achievable concentrations if the clinical Cmax of the agent was known.
Compounds. The drugs and investigational agents: BI-3406 (NSC825286), BAY-293 (NSC824723), batoprotafib (TNO155; NSC825523), sotorasib (AMG 510; NSC818433), MRTX1257 (NSC819558), elimusertib (BAY 1895344; NSC800525), molibresib (GSK525762; NSC774829), temuterkib (LY3214996; NSC803410), venetoclax (NSC766270), alisertib (NSC759677), olaparib (NSC753686), talazoparib (NSC767125), erdafitinib (NSC781556), ipatasertib (NSC767898), cabozantinib (NSC761068), nintedanib (NSC756659), abemaciclib (NSC768073), docetaxel (NSC628503), trametinib (NSC758246), and sapanisertib (NSC764658) were obtained from the National Cancer Institute (NCI) Developmental Therapeutics Program Chemical Repository. The FDA-approved anticancer drug set is available from the Developmental Therapeutics Program. […] The stock solutions were prepared in dimethyl sulfoxide (DMSO, Sigma-Aldrich, St. Louis, MO, cat. D2650) at 800-fold the tested concentration and stored at -70 degrees C prior to their use. All drugs and investigational agents were tested over a range starting from a high concentration at or near the clinical Cmax and decreasing in half-log increments. If the clinical Cmax for an agent had not been determined, the highest concentration tested was 10 microM.
Cell Culture. All cells were maintained in an incubator at 37 degrees C and 5% CO2 with 95% humidity. The PDC lines were cultured according to standard operating procedures established by the NCI PDMR (https://pdmr.cancer.gov/sops/default.htm). Briefly, all PDCs were thawed and cultured in Matrigel-coated flasks prepared with a working solution of 1X Ham's F-12 nutrient mix, without supplementation (Invitrogen, Waltham, MA, cat. 11765054), 100 U/mL penicillin-streptomycin (Invitrogen, cat. 15140122), and 2.5% Matrigel (Corning Inc., Corning, NY, cat. 354248) for the first three passages. All PDCs were cultured in complete DMEM/F-12 media containing advanced DMEM/F-12 (Invitrogen, cat. 12634028), 4.9% defined fetal bovine serum, heat inactivated (HyClone Laboratories Inc., Logan, UT, cat. SH30070.03HI), 389 ng/mL hydrocortisone (Sigma-Aldrich, cat. H4001), 9.7 ng/mL human EGF recombinant protein (Invitrogen, cat. PHG0313), 23.4 microg/mL adenine (Sigma-Aldrich, cat. A2786), 97.3 U/mL penicillin-streptomycin (Invitrogen, cat. 15140122), 1.9 mM L-glutamine (Invitrogen, cat. 25030081), and 9.7 microM Y-27632 dihydrochloride (Tocris Bioscience, Bristol, United Kingdom, cat. 1254). The PDCs were cultured in complete DMEM/F12 media without 9.7 microM Y-27632 dihydrochloride for at least two passages prior to the screen. The established cell line HOP-62 was cultured in RPMI 1640 medium, HEPES (Invitrogen, cat. 22400105) with 10% defined fetal bovine serum (HyClone Laboratories Inc., cat. SH30070.03) and 2 mM L-glutamine (Invitrogen, cat. 25030081). The pooled donor HUVEC were cultured in endothelial cell growth medium 2 (PromoCell, Heidelberg, Germany, cat. C-22011) and the hMSC were cultured in mesenchymal stem cell growth medium 2 (PromoCell, cat. C-28009). For all experiments, HUVEC and hMSC were used at passages </=5, while the malignant cell lines were used at passages </=15. […]

[1] = second compound 0.1 µM, first compound 0.00316 µM
[2] = second compound 0.1 µM, first compound 0.01 µM
[3] = second compound 0.1 µM, first compound 0.0316 µM
[4] = second compound 0.1 µM, first compound 0.1 µM
[5] = second compound 0.316 µM, first compound 0.00316 µM
[6] = second compound 0.316 µM, first compound 0.01 µM
[7] = second compound 0.316 µM, first compound 0.0316 µM
[8] = second compound 0.316 µM, first compound 0.1 µM
[9] = second compound 1 µM, first compound 0.00316 µM
[10] = second compound 1 µM, first compound 0.01 µM
[11] = second compound 1 µM, first compound 0.0316 µM
[12] = second compound 1 µM, first compound 0.1 µM
[13] = second compound 3.16 µM, first compound 0.00316 µM
[14] = second compound 3.16 µM, first compound 0.01 µM
[15] = second compound 3.16 µM, first compound 0.0316 µM
[16] = second compound 3.16 µM, first compound 0.1 µM
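Also: spheroids exposed to agents for 7 days.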

| SMILES | IC50 (second compound 0.1 µM) [nM] | IC50 (second compound 0.316 µM) [nM] | IC50 (second compound 1 µM) [nM] | IC50 (second compound 3.16 µM) [nM] | viability, T/C [1] [%] | viability, T/C [2] [%] | viability, T/C [3] [%] | viability, T/C [4] [%] | viability, T/C [5] [%] | viability, T/C [6] [%] | viability, T/C [7] [%] | viability, T/C [8] [%] | viability, T/C [9] [%] | viability, T/C [10] [%] | viability, T/C [11] [%] | viability, T/C [12] [%] | viability, T/C [13] [%] | viability, T/C [14] [%] | viability, T/C [15] [%] | viability, T/C [16] [%] | also measured |
| --- | --- | --- | --- | --- | --- | --- | --- | --- | --- | --- | --- | --- | --- | --- | --- | --- | --- | --- | --- | --- | --- |
| CCN1CCN(Cc2ccc(Nc3ncc(F)c(-c4cc(F)c5nc(C)n(C(C)C)c5c4)n3)nc2)CC1 + CC1OCC2(CCN(c3cnc(Sc4ccnc(N)c4Cl)c(N)n3)CC2)C1N | > 1000 | > 1000 | > 1000 | > 1000 | 92.9 | 83.3 | 81.4 | 88.2 | 84.9 | 82.2 | 67.3 | 74.6 | 82.3 | 80 | 72.6 | 75.2 | 72.2 | 74.8 | 68.1 | 66.6 | IC50 (second compound 10 µM): > 1000 nM; viability, T/C (second compound 0.1 µM, first compound 0.316 µM): 95.7%; viability, T/C (second compound 0.1 µM, first compound 1 µM): 92.8%; viability, T/C (second compound 0.316 µM, first compound 0.316 µM): 89.3%; viability, T/C (second compound 0.316 µM, first compound 1 µM): 84.9%; viability, T/C (second compound 1 µM, first compound 0.316 µM): 82.9%; viability, T/C (second compound 1 µM, first compound 1 µM): 81.7%; viability, T/C (second compound 3.16 µM, first compound 0.316 µM): 75.1%; viability, T/C (second compound 3.16 µM, first compound 1 µM): 68.8%; viability, T/C (second compound 10 µM, first compound 0.00316 µM): 65.8%; viability, T/C (second compound 10 µM, first compound 0.01 µM): 69.3%; viability, T/C (second compound 10 µM, first compound 0.0316 µM): 60.4%; viability, T/C (second compound 10 µM, first compound 0.1 µM): 61.1%; viability, T/C (second compound 10 µM, first compound 0.316 µM): 70.4%; viability, T/C (second compound 10 µM, first compound 1 µM): 53.3% |
| CC(C)n1nc(-c2ccc3oc(N)nc3c2)c2c(N)ncnc21 + C=CC(=O)N1CCN(c2nc(OCC3CCCN3C)nc3c2CCN(c2cccc4cccc(C)c24)C3)CC1CC#N | 39.2 | 56.6 | 42.7 | < 0.316 | 78.8 | 63.8 | 51.9 | 43.9 | 78.3 | 63.7 | 56.6 | 45 | 75.1 | 60 | 53.2 | 46.1 | 31.4 | 1.09 | 11.5 | 8.34 | IC50 (second compound 0.0316 µM): 54.2 nM; viability, T/C (second compound 0.0316 µM, first compound 0.000316 µM): 106%; viability, T/C (second compound 0.0316 µM, first compound 0.001 µM): 96.5%; viability, T/C (second compound 0.0316 µM, first compound 0.00316 µM): 76.8%; viability, T/C (second compound 0.0316 µM, first compound 0.01 µM): 70.1%; viability, T/C (second compound 0.0316 µM, first compound 0.0316 µM): 57.5%; viability, T/C (second compound 0.0316 µM, first compound 0.1 µM): 42.4%; viability, T/C (second compound 0.1 µM, first compound 0.000316 µM): 103%; viability, T/C (second compound 0.1 µM, first compound 0.001 µM): 95.2%; viability, T/C (second compound 0.316 µM, first compound 0.000316 µM): 103%; viability, T/C (second compound 0.316 µM, first compound 0.001 µM): 98%; viability, T/C (second compound 1 µM, first compound 0.000316 µM): 87.4%; viability, T/C (second compound 1 µM, first compound 0.001 µM): 91.2%; viability, T/C (second compound 3.16 µM, first compound 0.000316 µM): 37.8%; viability, T/C (second compound 3.16 µM, first compound 0.001 µM): 11.5% |
